Data taken from US20110251135A1, “INHIBITORS OF PERITONEAL SEEDING OF CANCER CELLS” (University of Utah Research Foundation, priority 2008, published 2011).

Assays:
Type in all cases: cell-based, human
[1] = tested on: DLD-1, HCT-116, HT-29 colon cancer cell lines; assay: Cell proliferation assay (crystal violet, 96-well); details: 10 μM, cultured up to 8 days
Experimental: The data points represent the means of triplicate experiments and the error bars the standard errors of the means. […] The percent of apoptotic cells was then determined by the annexin V assay. […] The results shown are typical of two separate experiments. […] Immunoblots were performed for c-IAP-2, TRAF-1, TRAF-2, and FLIP. All lanes contain equal total protein.
For the cell proliferation assay, cells were dispersed and plated at 40,000 cells/well in 96-well dishes. At various days in culture, the cells were gently washed twice with 100 μL/well of ice-cold blocking buffer (1% radioimmunoassay grade BSA in PBS) and twice with 100 μL/well of ice-cold PBS. The cells were fixed for 10 min in 100% ice-cold methanol (100 μL/well), then allowed to air-dry. The cells were stained with 100 μL/well of 0.1% crystal violet in H20 for 10 minutes, then washed gently four times with dd H20 and four times with PBS. The plates were then air-dried completely. The stained cells were then solubilized in 1% sodium deoxycholate, and the plates read at 590 nm in a spectrophotometer. The absorption at 590 nm is proportional to the number of attached cells.

[2] = tested on: transiently suspended DLD-1 cells; assay: Apoptosis of transiently suspended cells during readhesion (annexin V assay); details: DLD-1 transiently suspended, treated and allowed to readhere; 8 hours
Experimental: (§1) The transiently suspended cells were lysed and allowed to bind to DNA oligonucleotides, containing the NF-κB consensus binding site, that were immobilized to 96-well plates. NF-κB protein bound to the oligonucleotides was detected by an antibody to the p65 subunit that only recognized p65 that is bound to DNA. The positive control was HeLa cells that were stimulated with TNFα. A control was performed using excess free NF-κB oligonucleotides (Competitor). […] NF-κB binding activity was determined by the TransAM assay as in FIG. 5A. […] The data shown represent typical results of three separate experiments. […] An immunoblot for COX-2 was performed.
(§2) Single cell suspensions were plated at 100,000 cells per well in 24-well plates in media containing DMSO, BAY 11-7082, BAY 11-7085, or MG-132 for 8-24 hours in an incubator. Alternatively, DMSO, BAY 11-7082, BAY 11-7085, or MG-132 were added to cells that were confluent and adherent for several days. The nonadherent cells were aspirated off with the media and spun for 3 minutes at 2,000 rpm in 15 mL polypropylene tubes. […] 400 μL of binding buffer was added to each tube and the cells were analyzed by flow cytometry immediately. The percent of apoptosis was determined as the percent of annexin V-positive, propidium iodide-negative cells of the total cells counted. […]

[3] = tested on: transiently suspended HCT-116 cells; assay: as above; details: HCT-116 transiently suspended, treated and allowed to readhere; 8 hours
Experimental: as §1, §2

DLD-1 and HT-29 cells = assay: Readhesion survival of cells transduced with IκB super-repressor adenovirus (crystal violet)
Experimental: The percentage of apoptotic cells was determined using the annexin V assay. The data points represent the averages of three experiments; bars, +−.SE. E. DLD-1 and F. HT-29 cells were transduced with an adenovirus containing the IκB super-repressor construct. After 3 days, the cells were transiently suspended and allowed to readhere in the presence of subapoptotic concentrations of BAY 11-7085 or DMSO (vehicle) for 8 hours. The data are expressed as fractions of cells surviving compared with the controls (no adenovirus) and were quantitatively determined by staining the remaining adherent cells with crystal violet.
DLD-1 and HT-29 cells that were approximately 60-70% confluent were transduced with Ad-IκB super-repressor by adding 1-50 μL of purified virus to the cells. […] In a parallel experiment, the transduced cells were resuspended and allowed to readhere in BAY 11-7085 for 8 h. The percentage of surviving (nonapoptotic) cells was determined using crystal violet staining.
The specific involvement of NF-κB in the apoptotic mechanism of BAY 11-7085 was examined specifically. […] The transduced DLD-1 and HT-29 cells were then transiently suspended and allowed to readhere at concentrations of BAY 11-7085 below the in vitro apoptotic threshold (>20 μM) for these cell lines. […] Therefore, inhibition of NF-κB is important to the apoptotic effect of BAY 11-7085 during colon cancer cell readhesion.

NF-κB in HT-29 cells = assay: NF-κB ELISA during readhesion; details: colon and pancreatic cancer readhesion
From the text: Untreated adherent monolayers (Control) and Jurkat cells treated with TNFα (Jurkat Control) served as controls. The cells were collected and analyzed for NF-κB activation in an ELISA (see Methods). […] The floating and readherent cells were collected and lysed. Aliquots of the cell lysates were used to generate cleaved PARP immunoblots. All lanes contain equal total protein concentrations and the actin blot served as a loading control. The blots shown are typical of duplicate experiments. […] The floating cells were washed away and the adherent cells were then fixed and stained with crystal violet. The cells were lysed in deoxycholate and the intensity of the staining quantified by spectrophotometry. The results are normalized to the controls.
Nuclear lysates were generated, normalized for total protein concentration, and used to determine NF-κB activity in an ELISA kit (Panomics) per the manufacturer's instructions.

JNK = JNK activity (phosphorylation of c-JUN) in colon and pancreatic cancer cell lines

Compound: CC(C)(C)c1ccc(S(=O)(=O)/C=C/C#N)cc1 [BAY 11-7085, (2E)-3-[4-(tertiarybutylphenyl)sulfonyl]-2-propenenitrile]
- cell proliferation [1]: greatly inhibited cell proliferation
- BAY 11-7085-induced apoptosis during readhesion [2]: showed the same propensity for BAY 11-7085-induced apoptosis
- BAY 11-7085-induced apoptosis during readhesion [3]: HCT-116 cells did not
- in vitro apoptotic threshold (DLD-1 and HT-29 cells; DLD-1 and HT-29 cells during readhesion): > 20 µM
- apoptotic threshold of BAY 11-7085 compared with the controls (DLD-1 and HT-29 cells; DLD-1 and HT-29 expressing IκB super-repressor, readhesion 8 hours): significantly lowered the apoptotic threshold
- NF-κB inhibitor potency on a molar basis (comparison) (NF-κB in HT-29 cells): more potent NF-κB inhibitor than rosiglitazone
- JNK activity (phosphorylation of c-JUN) (JNK): readily induced JNK activity
